Experimental data taken from patent US20230285280A1, “A DEVICE FOR USE IN THE DELIVERY OF AN ACTIVE AGENT” (ROYAL COLLEGE OF SURGEONS IN IRELAND, priority 2020, published 2023).

Test: Active agent release from scaffold or scaffold+matrix in PBS at 37° C.
Type: physicochemical
Method: Release of nanoparticle-encapsulated active agent (either pirfenidone or prednisolone) from a matrix and release of active agent from a scaffold was assessed in the same manner. In short, one sample (of either a printed mesh (scaffold) or mesh+gel (scaffold and matrix)) per 1.5 mL eppendorf tube was incubated in 1 mL of PBS at 37° C. under agitation in a heated water bath. The release buffer was completely exchanged at selected time points of T=4 hrs, T=24 hrs, T=48 hrs, T=1 week, T=2 weeks, T=3 weeks, and T=4 weeks, T=6 weeks, T=8 weeks, T=10 weeks, T=12 weeks with samples stored at -20° C. until analysis. Release studies were undertaken for up to 28 days and released active agent concentrations were determined via extrapolation from a standard curve. Blank scaffolds (containing no active agent) were tested and readings were subtracted as an additional background control. Samples containing pirfenidone were analysed at 317 nm and samples containing prednisolone were analysed at 245 nm. Using either 3D drug printing or nanoparticle incorporation, it was possible to achieve a rapid release of active agent in the first 24 hours as well as a continuous release of drug over a 28 day period (FIG. 19).

What does the source list for `Cc1ccc(=O)n(-c2ccccc2)c1` [pirfenidone, 5-Methyl-1-phenylpyridin-2-one]?
pirfenidone release when scaffold combined with the hyaluronic acid matrix (higher (50 kDa) molecular weight PCL scaffold, in the presence of the hydrated matrix, FIG. 9B): negligible difference; pirfenidone release when scaffold combined with the hyaluronic acid matrix (lower molecular weight PCL scaffold, added to the matrix, FIG. 9A): release was slowed

For `C[C@]12C=CC(=O)C=C1CC[C@@H]1[C@@H]2[C@@H](O)C[C@@]2(C)[C@H]1CC[C@]2(O)C(=O)CO` [prednisolone, 11β-11,17,21-Trihydroxypregna-1,4-diene-3,20-dione], which “daily and cumulative prednisolone drug release” value (from 3D printed PCL scaffolds with no surrounding matrix, FIG. 10) is on record?
Its value is “biphasic release up to 28 days”.

What about the cumulative prednisolone release (from nanoparticles in a freeze-dried scaffold and hyaluronic acid matrix, FIG. 11) of the same compound?
Its cumulative prednisolone release is “rapid and sustained release”.
